One series relates to U2OS cells. Put plainly: Morphological cell painting assay. The format is cell-based. As to conditions: Supplemental table 6; cell painting profile similarity to compound 49, U2OS cells. The text has this:
Encouraged by the promising results from the pulldown experiment, and in order to get insight into bioactivity and possible mode of action, we analyzed peptide 33 in a morphological cell painting assay. The cell painting assay is a target agnostic assay which determines a cells morphological profile after treatment with a compound of interest and compares it to the profiles of a set of reference compounds. ^[22] By identifying reference compounds with a similar profile a hypothesis of the compounds mode of action can be generated based on their annotated targets. ^[23] U2OS cells were treated with our compound and 579 parameters were analyzed. […] We therefore synthesized a variant modified with an N‐terminal TAT sequence to enhance its permeability (compound 49, see Table 1 and Supplemental Figure 4). ^[24] […] Applying compound 49 to the cell painting assay led to an induction of 5.9 % and the corresponding profile was compared to the set of 3000 reference compounds. […] To validate this hypothesis, we exposed U2OS cells to compound 49 and evaluated the levels of p53 by Western blot. […] The exact mechanism by which the compounds elevate levels of p53 requires further investigation. However, it has previously been shown that the NuRD complex, of which RbAp48 is a core component, is able to deacetylate p53 and thereby modulate its stability. ^[26] The effect is mediated by the MTA family of proteins from which the compounds described here are derived. […]
The described assay follows closely the method described by Bray et al. Initially, 5 µl U2OS medium were added to each well of a 384 -well plate (PerkinElmer CellCarrier -384 Ultra). Subsequently, U2OS cell were seeded with a density of 1600 cells per well in 20 µl medium. The plate was incubated for 10 min at the ambient temperatu re, followed by an a dditional 4 h incubation (37 °C, 5 % CO2). Compound treatment was performed with the Echo 520 acoustic dispenser (Labcyte) at final concentrations of 10 µM, 3 µM or 1 µM. Incubation with compound was performed for 20 h (37 °C, 5 % CO2). Subsequently, mitoc hondria were stained with Mito Tracker Deep Red (Thermo Fisher Scientific, Cat. No. M22426). The Mito Tracker Deep Red stock solution (1 mM) was diluted to a final concentration of 100 nM in prewarmed medium. The medium was removed fr om the plate leaving 1 0 µl residual volume and 25 µl of the Mito Tracker solution were added to each well. 22 The plate was incubated for 30 min in darkness (37 °C, 5 % CO2). To fix the cells 7 µl of 18.5 % formaldehyde in PBS were added, resulting in a fi nal formaldehyde conce ntration of 3.7 %. Subsequently, the plate was incubated for another 20 min in darkness (RT) and washed three times with 70 µl of PBS. (Biotek Washer Elx405). Cells were permeabilized by addition of 25 µl 0.1 % Triton X -100 to each well, followed by 15 min incubation (RT) in darkness. The cells were washed three times with PBS leaving a final volume of 10 µl. To each well 25 µl of a staining solution were added, which contains 1 % BSA, 5 µl/mL Phalloidin (Thermo Fisher Scientific, A123 81), 25 µg/ml Concanav alin A (Thermo Fisher Scientific, Cat. […]
conjugate (Thermo Fisher Scientific, Cat. No. W11262) and […] SYTO 14 solution (Thermo Fisher Scientific, Cat. No. S7576). The plate is incubated for 30 min (RT) in darkness and washed three times with 70 µl PBS. After the final washing step the PBS was not aspirated. The plates were sealed and centrifuged for 1 min at 500 rpm.
The plates were prepare d in triplicates with shifted layouts to reduce plate effects and imaged using a Micro XL High-Content Screening System (Molecular Devices) in 5 channels (DAPI: Ex350 -400/ Em410- […]
The generated images were processed with the CellProfiler package (https://cellprofiler.org/, version 3.0.0) on a computing cluster of the Max Planck Society to extract 1716 cell features (parameters) per microscope site. The data was then further aggregated as medians per well (9 sites -> 1 well), then […]

Series [1] addresses T1, RbAp48 (Homo sapiens, UniProt Q09028). Put plainly: Competitive fluorescence polarization (FP) assay using complex of peptide 1 and RbAp48. Set-up: Full length RbAp48 was cloned; His tag followed by 3C cleavage site (N, cleaved yes); made in house; host or cells: Sf9 insect cells. Format: binding. Conditions: for IC50: Table 1, competitive FP, tracer peptide 1 1 nM, RbAp48 15 nM, 20 mM Tris-HCl, 150 mM NaCl, 0.01% Tween-20, pH 7.5, 30 min room temperature, lower limit set by 15 nM protein, read-out: IC50. Put shortly: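 Sf9-expressed full-length RbAp48 (tag cleaved), 15 nM, displaced from 1 nM fluorescent peptide tracer in 20 mM Tris-HCl pH 7.5, 150 mM NaCl, 0.01% Tween-20. Read by FP (ex 485/em 535 nm) after 30 min at room temperature.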

In series [2] the target is T1, RbAp48. Put plainly: Isothermal titration calorimetry (direct and competitive). Format: binding. Set-up: Full length RbAp48 was cloned; His tag followed by 3C cleavage site (N, cleaved yes); made in house; host or cells: Sf9 insect cells. How it is done: The weak ligand interferes with binding of the strong ligand allowing the use of higher concentrations and therefore stronger signal. The actual affinity and thermodynamic parameters can then be calculated from the measured values.[ ^20 , ^21 ] The long linear peptide 2, monocyclic peptide 8, and bicyclic peptide 33 were analysed using this method and the results are reported in Table 2 (See Figure 4 A and Supplemental Figure 13–16). […] An effect which could not clearly be observed by the FP assay as it's lower limits were reached.
Protein expression and purification
RbAp48 was expressed and purified by the Dortmund Protein Facility. Full length RbAp48 was cloned into a pOPIN vector ligating it to an N-terminal His tag followed by a 3C cleavage site. The protein was expressed from Sf9 cells for 48 h. Cells were harvested and lysed and the protein was purified by loading onto a HisTrap FF crude 5 ml column followed by on-column cleavage using Precission protease. The cleaved protein was then further purified using a HiLoad 26/60 Superdex 200 column.
(§1) Fluorescence polarization assay […]
Isothermal Titration Calorimetry
Isothermal titration calorimetry measurements w ere performed using a Microcal ITC-200 device. The buffer for all measurements consisted of 20 mM Tris, 150 mM NaCl, pH 7.5 and all measurements were performed at 25°C in duplicate except for 8. RbAp48 was dialyzed overnight using a 10 kDa MWCO Slide-A-lizer dialysis membrane and peptide samples were dissolved in the dialysis buffer. Direct measurements of 40 were perfomed by titrating the peptide ( 800 µM) into the cell containing RbAp48 (40 µM) using 2 µl injection after an initial injection of 0.5 µl. […]
by competitive ITC where the protein is premixed with a weak ligand ( 40).[1] Competitive measurements were performed by titrating 2, 8 or 33 (300 µM) into the cell containing RbAp48 (30 µM) and 40 (416 µM). Other conditions were the same as for the direct measurement described above.
Ki was calculated according using the following formula: […]

Series [3] is described as follows: Peptide stability in MDA-MB-231 whole cell lysate. Format: in vitro ADME. As to conditions: human, 37°C, HPLC, duplicate; for half-life at 600 µM: MDA-MB-231 whole cell lysate (freeze-thaw), 5 mg/ml protein in PBS, peptide 600 µM, read-out: t 1/2 (half-life); for remaining at 5 min, 600 µM: T 5 min; for remaining at 5 min, 600 µM / remaining at 0.25 h, 600 µM / remaining at 1 h, 600 µM: MDA-MB-231 whole cell lysate 5 mg/ml protein, read-out: % left; for remaining at 0.25 h, 600 µM: T 15 min; for remaining at 1 h, 600 µM: T 60 min. How it is done: To investigate whether the cyclization strategy influences the stability of the peptides we incubated 3, 8 and 33 in MDA‐MB‐231 cell lysate. […]
as §1
Isothermal Titration Calorimetry […]
Peptide stability was tested in whole cell lysate prepared from MDA-MB-231 cells using the freeze-thaw method. Peptides were dissolved in lysate (normalized to 5mg/ml protein using PBS) at 600 µM and incubated at 37°C. Samples were taken at different time points and mixed with an equal amount of MeOH containing 0.05 mg/ml ethylparaben as an i nternal standard. The samples were mixed and kept on ice for 15 minutes before centrifugation at 14000 rpm at 4 °C for 10 min. The supernatant was carefully removed and analyzed by HPLC. Peptide peaks were integrated and surface areas compared […]
Measurements were performed in duplicate.

[4] abbreviates: competitive ITC with weak ligand 40.

Results on ten compounds are retold here after article PMC7894522, “Structure Based Design of Bicyclic Peptide Inhibitors of RbAp48” (Angewandte Chemie (International Ed. in English), 2020).

Starred links: 1 amine or outer side, 2 acyl side, 3 side chain; linkers in the order of their positions; H or OH if unused. Positions of bridges follow the written chain, without caps; N, C: chain ends. Residues, ends and D or L forms follow the SMILES beside them. TBMB = c1c(C[*:1])cc(C[*:3])cc1C[*:2]; pXylylene = c1cc(C[*:2])ccc1C[*:1]

T1 sequence (Q09028 whole entry): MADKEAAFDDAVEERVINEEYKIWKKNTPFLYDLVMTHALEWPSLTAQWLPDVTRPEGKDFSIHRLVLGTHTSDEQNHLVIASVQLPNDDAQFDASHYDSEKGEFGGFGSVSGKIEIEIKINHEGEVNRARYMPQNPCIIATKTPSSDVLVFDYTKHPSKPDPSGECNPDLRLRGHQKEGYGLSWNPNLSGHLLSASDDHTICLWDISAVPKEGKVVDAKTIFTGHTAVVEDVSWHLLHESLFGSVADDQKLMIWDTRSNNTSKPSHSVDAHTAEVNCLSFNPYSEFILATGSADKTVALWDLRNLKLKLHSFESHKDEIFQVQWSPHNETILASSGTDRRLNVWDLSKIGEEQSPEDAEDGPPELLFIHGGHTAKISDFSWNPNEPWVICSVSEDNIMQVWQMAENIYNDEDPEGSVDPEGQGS

With `COc1cc2nc(N3CCCN(C)CC3)nc(NC3CCN(Cc4ccccc4)CC3)c2cc1OC` [BIX01294], the “Biosimilarity (%)” value with U2OS cells was 64.9%.

With `CC(=O)N1CCN(c2ccc(OCC3COC(Cn4ccnc4)(c4ccc(Cl)cc4Cl)O3)cc2)CC1` (centres unmarked) [Ketoconazole], the “Biosimilarity (%)” value with U2OS cells worked out at 61.9%.

As to `CC(C)(C)C[C@@H]1N[C@@H](C(=O)N[C@H]2CC[C@H](O)CC2)[C@H](c2cccc(Cl)c2F)[C@]12C(=O)Nc1cc(Cl)ccc12` [MI-773], in the series on U2OS cells, the “Biosimilarity (%)” value was found to be 73.0%.

`CC[C@H](C)[C@H](NC(=O)[C@@H]1CCCN1C(=O)[C@H](CCCCN)NC(=O)[C@H](Cc1ccc(O)cc1)NC(=O)[C@@H]1CCCN1C(=O)[C@H](CCCNC(=N)N)NC(=O)[C@H](CCCNC(=N)N)NC(=O)[C@H](C)NC(=O)[C@H](C)NC(=O)[C@H](CCCNC(=N)N)NC(=O)[C@H](CCCCN)NC(=O)[C@@H](NC(=O)[C@H](CCC(=O)O)NC(=O)[C@H](CO)NC(=O)[C@H](CO)NC(=O)[C@H](CO)NC(=O)[C@H](CC(C)C)NC(=O)[C@H](CC(C)C)NC(=O)[C@H](CCCCN)NC(C)=O)[C@@H](C)O)C(=O)N[C@@H](C)C(=O)N[C@@H](CC(C)C)C(=O)N[C@@H](CCCNC(=N)N)C(=O)N[C@@H](CCC(N)=O)C(=O)N[C@@H](CO)C(=O)N[C@@H](CCC(N)=O)C(=O)N[C@@H](C)C(N)=O` [Peptide 2] (Ac-KLLSSSETKRAARRPYKPIALRQSQA-NH2): the IC50 at RbAp48 [1] was determined as 0.0134 ± 0.003 µM. In addition, at RbAp48 [2] (setting [4]), the equilibrium dissociation constant (Kd) worked out at 0.00518 µM.

On to `CC[C@H](C)[C@H](NC(=O)[C@@H]1CCCN1C(=O)[C@H](CCCCN)NC(=O)[C@H](Cc1ccc(O)cc1)NC(=O)[C@@H]1CCCN1C(=O)[C@H](CCCNC(=N)N)NC(=O)[C@H](CCCNC(=N)N)NC(=O)[C@H](C)NC(=O)[C@H](C)NC(=O)[C@H](CCCNC(=N)N)NC(=O)[C@H](CCCCN)NC(=O)[C@@H](NC(=O)[C@H](CCC(=O)O)NC(C)=O)[C@@H](C)O)C(=O)N[C@@H](C)C(N)=O` [Peptide 3] (Ac-ETKRAARRPYKPIA-NH2), for which, in series [3], the half-life at 600 µM was 16 min; the remaining at 5 min, 600 µM amounted to 67.5%; the remaining at 0.25 h, 600 µM was found to be 49.2%; the remaining at 1 h, 600 µM was 0%. Besides, the IC50 on RbAp48 [1] was 2.62 ± 0.786 µM.

For `CC(=O)N[C@H]1CSCc2ccc(cc2)CSC[C@@H](C(=O)N[C@@H](C)C(N)=O)NC(=O)[C@@H]2CCCN2C(=O)[C@H](CCCCN)NC(=O)[C@H](Cc2ccc(O)cc2)NC(=O)[C@@H]2CCCN2C(=O)[C@H](CCCNC(=N)N)NC(=O)[C@H](CCCNC(=N)N)NC(=O)[C@H](C)NC(=O)[C@H](C)NC(=O)[C@H](CCCNC(=N)N)NC(=O)[C@H](CCCCN)NC(=O)[C@H]([C@@H](C)O)NC1=O` [Peptide 8] (Ac-CTKRAARRPYKPCA-NH2; linker 1-13 via pXylylene), in series [3], the half-life at 600 µM came to 11.9 min; the remaining at 5 min, 600 µM stood at 67.8%; the remaining at 0.25 h, 600 µM stood at 41%; the remaining at 1 h, 600 µM is 0%. Also, the IC50 on RbAp48 [1] turned out to be 0.0151 ± 0.0054 µM. The “K D” value on RbAp48 [2] (setting [4]) is “did not yield a binding curve”. In addition, the “K D [nM]” value at RbAp48 [2] (competitive ITC: 300 μM peptide titrated into 30 μM RbAp48 and 416 μM peptide 40, 20 mM Tris, 150 mM NaCl, pH 7.5, 25°C, duplicate except 8) is “N.B”.

Take `CC(=O)N[C@H]1CSCc2cc3cc(c2)CSC[C@@H](C(=O)N[C@@H](C)C(N)=O)NC(=O)[C@@H]2CCCN2C(=O)[C@H](CCCCN)NC(=O)[C@H](Cc2ccc(O)cc2)NC(=O)[C@@H]2CCCN2C(=O)[C@H](CCCNC(=N)N)NC(=O)[C@H](C)NC(=O)[C@H](C)NC(=O)[C@H](CSC3)NC(=O)[C@H](CCCNC(=N)N)NC(=O)[C@H](CCCCN)NC(=O)[C@H]([C@@H](C)O)NC1=O` [Peptide 40] (Ac-CTKRCAARPYKPCA-NH2; linker 1-5-13 via TBMB): the concentration for half-maximal inhibition (IC50) at RbAp48 [1] is 4.32 ± 0.974 µM. Also, the “FP activity in words” value at RbAp48 [1] (competitive FP assay) is recorded as “decreased several orders of magnitude”. Moreover, binding at RbAp48 [2] (weak binding ligand, direct ITC) was characterised by a dissociation constant (Kd) of 15.8 µM.

Regarding `NS(=O)(=O)OC[C@@H]1C[C@@H](n2ccc3c(N[C@H]4CCc5ccccc54)ncnc32)C[C@@H]1O` [Pevonedistat], the “Biosimilarity (%)” value in the series with U2OS cells is 63.6%.

With `CCN(CC)CCNC(=O)c1c(C)[nH]c(/C=C2\C(=O)Nc3ccc(F)cc32)c1C` [Sunitinib], the “Biosimilarity (%)” value with U2OS cells amounted to 63.5%.

Consider PFI-5, for which, in the series with U2OS cells, the “Biosimilarity (%)” value was 65.1%.
